The target in experiment [1] is T1, phosphatase ABI1 via the co-regulator RCAR11/PYR1 (Arabidopsis thaliana, UniProt O49686+P49597).
T1 sequence (O49686 1-191): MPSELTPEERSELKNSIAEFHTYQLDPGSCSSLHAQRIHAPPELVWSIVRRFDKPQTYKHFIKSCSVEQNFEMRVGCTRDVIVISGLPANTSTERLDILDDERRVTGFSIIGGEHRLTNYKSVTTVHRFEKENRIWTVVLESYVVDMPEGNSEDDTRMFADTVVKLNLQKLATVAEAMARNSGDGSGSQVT
T1 sequence (P49597 1-434): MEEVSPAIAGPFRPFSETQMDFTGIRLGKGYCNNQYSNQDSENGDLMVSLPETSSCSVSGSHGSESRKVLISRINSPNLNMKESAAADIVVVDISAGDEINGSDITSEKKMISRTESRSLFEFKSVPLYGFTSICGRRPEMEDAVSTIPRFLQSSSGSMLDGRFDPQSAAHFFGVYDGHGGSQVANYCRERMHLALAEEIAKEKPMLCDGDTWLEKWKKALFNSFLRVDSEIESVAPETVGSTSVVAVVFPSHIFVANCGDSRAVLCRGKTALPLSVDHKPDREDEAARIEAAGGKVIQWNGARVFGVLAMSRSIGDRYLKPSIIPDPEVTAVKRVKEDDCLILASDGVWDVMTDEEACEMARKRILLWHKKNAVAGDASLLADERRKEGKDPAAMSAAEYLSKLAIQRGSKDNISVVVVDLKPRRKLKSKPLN
Nature of the experiment: In vitro inhibition of phosphatase ABI1 via co-regulator RCAR11/PYR1, MUP dephosphorylation fluorescence assay. It is filed as biochemical. To be noted: concentration of 5 mM of the substance in DMSO and water; MUP substrate, 35° C., 20 minutes. From the text: Effects of the phytohormone abscisic acid (ABA) on the behaviour of plants under abiotic stress and the mechanism of action of ABA are described in the literature (cf. Abrams et al., WO97/23441, Cutler, Park et al. Science, 2009, 324, 1068; Grill et al. Science, 2009, 324, 1064; Tanokura et al. Biophysics, 2011, 7, 123; Schroeder et al. Plant J. 2010, 61, 290). Therefore, it is possible with the aid of a suitable in vitro test system to derive a correlation between the action of ABA and the stress response of a plant under abiotic stress. In the event of water deficiency (drought stress), plants form the phytohormone abscisic acid (ABA). […]
The assay described hereinafter utilizes the inhibition of the phosphatase ABI1 via the co-regulator RCAR11/PYR1 aus Arabidopsis thaliana. For the determination of activity, the dephosphorylation of 4-methylumbelliferyl phosphate (MUP) was measured at 460 nm. […]
Enzyme buffer mix and substrate mix were made up 5 minutes prior to the addition and warmed to a temperature of 35° C. […] Finally, a relative fluorescence measurement was made at 35° C. with a BMG Labtech “POLARstar Optima” microplate reader using a 340/10 nm excitation filter and a 460 nm emission filter. […]

The test system of experiment [2] is Triticum aestivum. Nature of the experiment: In vivo drought stress test on crop plants, spray application, visual scoring vs stressed control (TRZAS). To be noted: dosage 250 g/ha, average score of 3 pots vs stressed control. More on the design: key: 0: no positive effect; 10: slight positive effect; 20: clear positive effect; 30: strong positive effect. The procedure:
(§1) Seeds of monocotyledonous and dicotyledonous crop plants were sown in sandy loam in plastic pots, covered with soil or sand and cultivated in a greenhouse under good growth conditions. The trial plants were treated at the early leaf stage (BBCH10-BBCH13). To assure uniform water supply before commencement of stress, the potted plants were supplied with water by dam irrigation prior to substance application. The inventive compounds, formulated in the form of wettable powders (WP), were sprayed onto the green parts of the plants as an aqueous suspension at an equivalent water application rate of 600 I/ha with addition of 0.2% wetting agent (e.g. agrotin). Substance application was followed immediately by stress treatment of the plants. […] Once this juncture had been reached, the appearance of the plants treated with test substances was recorded in comparison to the stressed control plants by the following categories: • 0 no positive effect • 10 slight positive effect • 20 clear positive effect • 30 strong positive effect In order to rule out any influence on the effects observed by any fungicidal or insecticidal action of the test compounds, it was additionally ensured that the tests proceeded without fungal infection or insect infestation. In each test, for each crop and dosage, plants in 3 pots were treated and evaluated separately. […]

In experiment [3] the test system is Zea mays. Nature of the experiment: In vivo drought stress test on crop plants, spray application, visual scoring vs stressed control (ZEAMX). More on the design: key: 0: no positive effect; 10: slight positive effect; 20: clear positive effect; 30: strong positive effect. The conditions noted are these: dosage 250 g/ha, average score of 3 pots vs stressed control. The procedure: as §1

Consider three molecules from patent US20170197910A1, “SUBSTITUTED VINYL AND ALKYNYL CYANOCYCLOALKANOLS AND VINYL AND ALKYNYL CYANOHETEROCYCLOALKANOLS AS ACTIVE AGENTS AGAINST ABIOTIC PLANT STRESS” (BAYER CROPSCIENCE AKTIENGESELLSCHAFT, priority 2014, published 2017).

Consider `CC(C)C(O)(C#Cc1ccccc1C(=O)O)C1(C#N)CC1` (stereo not shown) [I.1-127, 2-[3-(1-Cyanocyclopropyl)-3-hydroxy-4-methylpent-1-yn-1-yl]benzoic acid], for which the ABI1 inhibition entry in experiment [1] was “+++ (90%>inhibition≧70%)”.
With `COC(=O)c1ccccc1C#CC(O)(C(C)C)C1(C#N)CC1` (stereo not shown) [I.1-130, Methyl 2-[3-(1-cyanocyclopropyl)-3-hydroxy-4-methylpent-1-yn-1-yl]benzoate], the “Effect (TRZAS)” value in experiment [2] is 20. Moreover, in experiment [3], the “Effect (ZEAMX)” value came to 20.
Turning to `CC1=CC(=O)CC(C)(C)[C@@]1(O)/C=C/C(C)=C\C(=O)O` [abscisic acid, reference compound], the ABI1 inhibition entry in experiment [1] is given as “++++ (inhibition≧90%)”.
